Data: paper PMC11224111, “Optimizing the pharmacokinetics of an ^211At-labeled RGD peptide with an albumin-binding moiety via the administration of an albumin-binding inhibitor” (European Journal of Nuclear Medicine and Molecular Imaging, 2024)
Marks after values point to notes of the source that are not given here.

Test: Biodistribution of [^211At]1 and [^125I]2 in normal mice with ibuprofen or IPBA as albumin-binding inhibitor
Conditions: 4 h after administration
Method: To evaluate the effects of albumin-binding inhibitors in normal mice, [^211At]1 (37 kBq) and [^125I]2 (37 kBq) were intravenously coadministered. […] The total blood albumin (1.1 µmol) in normal mice was calculated from the albumin concentration (3.0 g/dL ≈ 455 µM) in blood, which was informed from Japan SLC, Inc., total blood volume (2.5 mL) as 8% of body weight, and the molecular weight of albumin as 66,000 g/mol. […]
Table S1. Biodistribution of radioactivity 4 h after administration of [^211At]1 and [^125I]2 in normal mice.

[1] = IPBA 10 eq at 1 h postinjection
[2] = ibuprofen 10 eq at 1 h postinjection

## Ga-DOTA-K([^125I]IPBA)-c(RGDfK) [[^125I]2]
IPBA 2 eq at 1 h postinjection
  Radioactivity, Blood: 7.26 (0.34)^ ***, a, b % injected activity per gram
  Radioactivity, Bone: 1.22 (0.11) ^a, b % injected activity per gram
  Radioactivity, Brain: 0.20 (0.03)^ *,^ a % injected activity per gram
  Radioactivity, Heart: 2.49 (0.13)^ **,^ a % injected activity per gram
  Radioactivity, Kidney: 3.46 (0.17)^ * % injected activity per gram
  Radioactivity, L. intestine: 1.14 (0.31)^ ** % injected activity per gram
  Radioactivity, Liver: 1.58 (0.12)^ a % injected activity per gram
  Radioactivity, Lung: 4.22 (0.49)^ ***,^ a, b % injected activity per gram
  Radioactivity, Muscle: 1.02 (0.07)^ *,^ a, b % injected activity per gram
  Radioactivity, Neck: 0.32 (0.10) % injected activity
  Radioactivity, Pancreas: 1.41 (0.10)^ *,^ a, b % injected activity per gram
  Radioactivity, S. intestine: 1.28 (0.03)^ **,^ a % injected activity per gram
  Radioactivity, Spleen: 1.15 (0.11)^ *,^ a, b % injected activity per gram
  Radioactivity, Stomach: 1.21 (0.07)^ * % injected activity
IPBA 5 eq at 1 h postinjection
  Radioactivity, Blood: 2.06 (0.24)^ ***, a, b, c % injected activity per gram
  Radioactivity, Bone: 0.73 (0.06)^ **,^ a, b, c % injected activity per gram
  Radioactivity, Brain: 0.15 (0.02)^ a % injected activity per gram
  Radioactivity, Heart: 0.83 (0.09)^ **,^ a, b, c % injected activity per gram
  Radioactivity, Kidney: 3.52 (0.08)^ *, b % injected activity per gram
  Radioactivity, L. intestine: 0.87 (0.25) % injected activity per gram
  Radioactivity, Liver: 1.20 (0.12)^ *,^ a, b, c % injected activity per gram
  Radioactivity, Lung: 1.92 (0.16)^ **,^ a, b, c % injected activity per gram
  Radioactivity, Muscle: 0.47 (0.04)^ **,^ a, b, c % injected activity per gram
  Radioactivity, Neck: 0.07 (0.02)^ a % injected activity
  Radioactivity, Pancreas: 0.79 (0.10)^ **,^ a, b, c % injected activity per gram
  Radioactivity, S. intestine: 1.33 (0.14) % injected activity per gram
  Radioactivity, Spleen: 0.93 (0.58)^ a, b % injected activity per gram
  Radioactivity, Stomach: 1.11 (0.34)^ **,^ a % injected activity
[1]
  Radioactivity, Blood: 0.95 (0.12)^ **, a, b, c, d % injected activity per gram
  Radioactivity, Bone: 0.77 (0.07)^ **,^ a, b, c % injected activity per gram
  Radioactivity, Brain: 0.15 (0.03)^ a % injected activity per gram
  Radioactivity, Heart: 0.58 (0.10)^ ***,^ a, b, c % injected activity per gram
  Radioactivity, Kidney: 3.60 (0.43) % injected activity per gram
  Radioactivity, L. intestine: 0.98 (0.31) ^*, b % injected activity per gram
  Radioactivity, Liver: 0.84 (0.06)^ a, b, c % injected activity per gram
  Radioactivity, Lung: 1.33 (0.09)^ ***,^ a, b, c % injected activity per gram
  Radioactivity, Neck: 0.03 (0.02)^ b, c, d % injected activity
  Radioactivity, Pancreas: 0.60 (0.15)^ a, b, c, d % injected activity per gram
  Radioactivity, S. intestine: 1.17 (0.13)^ a % injected activity per gram
  Radioactivity, Spleen: 1.00 (0.19)^ **,^ a, b % injected activity per gram
  Radioactivity, Stomach: 0.94 (0.12)^ ** % injected activity
[2]
  Radioactivity, Blood: 10.19 (0.64)^ ***, a % injected activity per gram
  Radioactivity, Bone: 1.56 (0.16)^ a % injected activity per gram
  Radioactivity, Brain: 0.25 (0.05)^ a % injected activity per gram
  Radioactivity, Heart: 3.24 (0.29)^ * % injected activity per gram
  Radioactivity, Kidney: 3.10 (0.24) % injected activity per gram
  Radioactivity, L. intestine: 1.87 (0.66) ^* % injected activity per gram
  Radioactivity, Liver: 1.81 (0.24)^ a % injected activity per gram
  Radioactivity, Lung: 6.02 (0.99)^ *,^ a % injected activity per gram
  Radioactivity, Muscle: 1.19 (0.07) % injected activity per gram
  Radioactivity, Neck: 0.36 (0.12)^ *,^ a % injected activity
  Radioactivity, Pancreas: 1.78 (0.09) % injected activity per gram
  Radioactivity, S. intestine: 1.49 (0.12)^ * % injected activity per gram
  Radioactivity, Spleen: 1.49 (0.18)^ a % injected activity per gram
  Radioactivity, Stomach: 1.16 (0.03)^ * % injected activity
Vehicle at 1 h postinjection
  Radioactivity, Blood: 13.28 (0.80)^ *** % injected activity per gram
  Radioactivity, Bone: 1.84 (0.12) % injected activity per gram
  Radioactivity, Brain: 0.38 (0.09) % injected activity per gram
  Radioactivity, Heart: 4.05 (0.98) % injected activity per gram
  Radioactivity, Kidney: 3.32 (0.15) % injected activity per gram
  Radioactivity, L. intestine: 1.59 (0.38) % injected activity per gram
  Radioactivity, Liver: 2.51 (0.07) % injected activity per gram
  Radioactivity, Lung: 7.38 (0.61)^ * % injected activity per gram
  Radioactivity, Muscle: 1.28 (0.06) % injected activity per gram
  Radioactivity, Neck: 0.13 (0.03)^ * % injected activity
  Radioactivity, Pancreas: 1.81 (0.05) % injected activity per gram
  Radioactivity, S. intestine: 1.94 (0.14)^ ** % injected activity per gram
  Radioactivity, Spleen: 2.11 (0.08) % injected activity per gram
  Radioactivity, Stomach: 0.80 (0.12) % injected activity
